Reference: ChEMBL document CHEMBL1140573, “Potent achiral agonists of the ghrelin (growth hormone secretagogue) receptor. Part I: Lead identification” (Bioorg Med Chem Lett, 2007)
pEC50, pKi: −log10 of the molar value. Values after ≈ are worked out from the molar mass of the structure shown. Active and inactive are the calls of the source. The calls are words filed in the database; no cut-off is given here.

Tests used:
[1] = molecular target: T1, Growth hormone secretagogue receptor type 1 (Homo sapiens, UniProt Q92847); experiment: Agonist activity at GSHR by FLIPR assay; type: functional
[2] = molecular target: T1, Growth hormone secretagogue receptor type 1; experiment: Intrinsic activity at GSHR relative to human ghrelin; type: functional
[3] = molecular target: 5-hydroxytryptamine receptor 1B (Homo sapiens, UniProt P28222); experiment: Binding affinity at 5HT1B receptor
[4] = molecular target: Motilin receptor (Homo sapiens) (UniProt O43193); experiment: Activity at motilin GPR38 receptor
[5] = Distribution coefficient, log D at pH 7.4; type: physicochemical; details: octanol/water
[6] = Aqueous solubility at pH 7.4; type: physicochemical
[7] = tested on: Liver microsomes; experiment: Metabolic stability in human liver microsomes; type: ADME, Microsome
[8] = tested on: Liver microsomes; experiment: Metabolic stability in rat liver microsomes; type: ADME, Microsome
[9] = Cmax in rat at 1 mg/kg, iv; type: ADME, organism-based; set-up: dose 1 mg/kg, route intravenous; details: in vivo
[10] = Half life in rat at 1 mg/kg, iv; type: ADME, organism-based; set-up: dose 1 mg/kg, route intravenous; details: in vivo
[11] = Clearance in rat blood at 1 mg/kg, iv; type: ADME, organism-based; set-up: dose 1 mg/kg, route intravenous; details: in vivo
[12] = Volume of distribution in rat at 1 mg/kg, iv; type: ADME, organism-based; set-up: dose 1 mg/kg, route intravenous; details: in vivo, read-out: Vdss
[13] = tested on: Rattus norvegicus; experiment: Increase in gastric emptying in sc dosed rat; type: functional; details: Stomach

T1 sequence (Q92847 whole entry): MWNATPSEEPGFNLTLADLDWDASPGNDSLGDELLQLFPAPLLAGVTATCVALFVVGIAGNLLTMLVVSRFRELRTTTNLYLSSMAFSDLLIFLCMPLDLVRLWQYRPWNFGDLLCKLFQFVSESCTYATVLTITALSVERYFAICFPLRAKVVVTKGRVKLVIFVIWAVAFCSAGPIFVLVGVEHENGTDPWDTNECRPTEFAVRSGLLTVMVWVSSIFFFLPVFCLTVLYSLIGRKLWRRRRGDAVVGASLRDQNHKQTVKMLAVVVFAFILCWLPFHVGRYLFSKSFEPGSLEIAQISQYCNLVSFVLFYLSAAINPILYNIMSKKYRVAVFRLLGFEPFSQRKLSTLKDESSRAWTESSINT
Chain of 5-hydroxytryptamine receptor 1B (P28222 whole entry): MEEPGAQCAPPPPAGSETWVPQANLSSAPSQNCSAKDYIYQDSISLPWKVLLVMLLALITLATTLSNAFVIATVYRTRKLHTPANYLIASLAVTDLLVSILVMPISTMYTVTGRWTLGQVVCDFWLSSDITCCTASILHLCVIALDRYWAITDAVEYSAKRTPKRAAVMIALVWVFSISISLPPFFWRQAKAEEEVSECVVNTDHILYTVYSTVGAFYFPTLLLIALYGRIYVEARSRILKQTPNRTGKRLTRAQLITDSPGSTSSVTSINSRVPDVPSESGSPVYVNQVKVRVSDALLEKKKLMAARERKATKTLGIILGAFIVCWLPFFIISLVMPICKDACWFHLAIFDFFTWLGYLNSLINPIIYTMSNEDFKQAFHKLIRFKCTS
Chain of Motilin receptor (Homo sapiens) (O43193 whole entry): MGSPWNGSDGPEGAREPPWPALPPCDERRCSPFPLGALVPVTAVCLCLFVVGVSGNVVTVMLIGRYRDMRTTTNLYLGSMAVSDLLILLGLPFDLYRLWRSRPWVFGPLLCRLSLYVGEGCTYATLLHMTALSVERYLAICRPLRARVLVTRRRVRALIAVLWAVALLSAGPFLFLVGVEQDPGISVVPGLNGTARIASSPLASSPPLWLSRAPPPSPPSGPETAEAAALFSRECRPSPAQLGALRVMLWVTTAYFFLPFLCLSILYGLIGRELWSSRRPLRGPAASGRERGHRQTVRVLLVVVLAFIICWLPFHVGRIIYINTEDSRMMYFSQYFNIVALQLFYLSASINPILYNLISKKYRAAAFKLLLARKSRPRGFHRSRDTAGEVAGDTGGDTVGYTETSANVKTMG

Compound | pEC50 [1] | Intrinsic activity [2] | also measured
COc1cc2c(cc1N1C[C@@H](C)N(C)[C@@H](C)C1)N(S(=O)(=O)c1cccc(Br)c1)CC2 | 6.90 | 0.7 | pKi [3]: 5.70
COc1cc2c(cc1N1C[C@@H](C)N(C)[C@@H](C)C1)N(S(=O)(=O)c1ccc3ccccc3c1)CC2 | 7.40 | 0.8 | 
COc1cc2c(cc1N1C[C@@H](C)N[C@@H](C)C1)N(S(=O)(=O)Cc1cccc(I)c1)CC2 | 7.50 | 0.8 | 
COc1cc2c(cc1N1CCN[C@H](C)C1)N(S(=O)(=O)c1ccc(-c3ccccn3)s1)CC2 | 8.40 | 1 | 
COc1cc2c(cc1N1CCN[C@@H](C)C1)N(S(=O)(=O)c1ccc(-c3ccccn3)s1)CC2 | 8.50 | 1 | 
CCOc1ccc(CC(=O)N2CCc3cc(OC)c(N4C[C@@H](C)N(C)[C@@H](C)C4)cc32)cc1Cl | 6.80 | 0.7 | pKi [3]: 7.90
COc1cc2c(cc1N1C[C@@H](C)NC(C)(C)C1)N(S(=O)(=O)c1ccc(-c3ccccn3)s1)CC2 | 8.00 | 0.8 | 
COc1cc2c(cc1N1C[C@@H](C)N[C@@H](C)C1)N(S(=O)(=O)CCc1ccccc1Cl)CC2 | 8.30 | 0.9 | 
COc1cc2c(cc1N1CCNCC1)N(S(=O)(=O)c1ccc(-c3ccccn3)s1)CC2 | 7.20 | 0.8 | 
COc1cc2c(cc1N1C[C@@H](C)N[C@@H](C)C1)N(S(=O)(=O)c1cccc(-c3ccccn3)c1)CC2 | 7.70 | 0.9 | 
COc1cc2c(cc1N1CCNC(C)(C)C1)N(S(=O)(=O)c1ccc(-c3ccccn3)s1)CC2 | 7.80 | 0.9 | 

Stronger by pEC50 [1], values ahead:

pEC50 [1] | Intrinsic activity [2] | Compound | also measured
8.60 | 0.9 | COc1cc2c(cc1N1C[C@@H](C)N[C@@H](C)C1)N(S(=O)(=O)c1ccc(-c3ccon3)s1)CC2 | 
9.10 | 1 | COc1cc2c(cc1N1C[C@H](C)NC(C)(C)C1)N(S(=O)(=O)c1ccc(-c3ccccn3)s1)CC2 | 
9.30 | 1 | COc1cc2c(cc1N1C[C@@H](C)N[C@@H](C)C1)N(S(=O)(=O)c1ccc3ccccc3c1)CC2 | 
9.70 | 1.1 | COc1cc2c(cc1N1C[C@@H](C)N[C@@H](C)C1)N(S(=O)(=O)c1ccc(-c3ccccn3)cc1)CC2 | 
9.80 | 0.9 | COc1cc2c(cc1N1C[C@@H](C)N[C@@H](C)C1)N(S(=O)(=O)c1ccc(-c3ccccn3)s1)CC2 | Activity [4]: inactive; logD [5]: 1.8; solubility [6]: 0.168 mg/mL (≈ 347 µM); Stability [7]: 4.5 mL/min/g; Stability [8]: 2.6 mL/min/g; Cmax [9]: 0.25 µM; half-life [10]: 2.3 h; Clearance blood [11]: 3.84 L/h/kg; Vd [12]: 8.8 L/kg; ED50 [13]: 0.1 mg/kg
